Where a name gives a salt, the structure may show the parent alone.
Key:
[1] = in vivo screen APCC: blood cholesterol in rats fed overnight a high fat, high cholesterol (PCC) diet; settings: male Sprague-Dawley rats, dosed at 4 PM, PCC diet with 0.5% cholic acid overnight, blood sampled 8 AM, dose not given
Excerpt: In one in vivo screen designated APCC, male Sprague-Dawley rats (200 to 225 g) were randomly divided into treatment groups and dosed at 4 PM with either vehicle (CMC/Tween) or suspensions of compounds in vehicle. The normal chow diet was then replaced with a high fat, high cholesterol diet (designated PCC) containing 0.5% cholic acid. The rats consumed this diet ad libitum during the night and were sacrificed at 8 AM to obtain blood samples for cholesterol analysis using standard procedures. Statistical differences between mean cholesterol values for the same vehicle were determined using analysis of variance followed by Fisher's least significant test.

[2] = molecular target: acyl-CoA:cholesterol acyltransferase (ACAT); test: in vitro ACAT inhibition (LAI): radiolabeled cholesterol oleate formed from radiolabeled oleic acid in rat liver microsomes; format: biochemical; settings: concentration required to inhibit enzyme activity by 50%
Protocol: The ability of representative compounds of the present invention to inhibit ACAT was measured using an in vitro test more fully described in Field FJ, Salone RG, Biochemica et Biophysica, 1982;712:557-570. The test assesses the ability of a test compound to inhibit the acylation of cholesterol by oleic acid by measuring the amount of radiolabeled cholesterol oleate formed from radiolabeled oleic acid in a tissue preparation containing rat liver microsomes.

| SMILES | IC50 [2] [µM] | IC50 ([2]; sodium salt) [µM] | % Change (mg/dl) in cholesterol [1] | % Change (mg/dl) in cholesterol ([1]; sodium salt) [%] |
| --- | --- | --- | --- | --- |
| CC(C)c1cccc(C(C)C)c1OS(=O)(=O)NC(=O)[C@@H]1C[C@H]1c1ccccc1 (relative stereo) [Example 15, sulfamic acid trans-[(2-phenylcyclopropyl)carbonyl]-2,6-bis(1-methylethyl)phenyl ester] |  |  | -14% |  |
| CC(C)c1cccc(C(C)C)c1CC(=O)NS(=O)(=O)Oc1c(C(C)C)cccc1C(C)C [Example 1, sulfamic acid[[2,6-bis(1-methylethyl)phenyl]acetyl]-2,6-bis(1-methylethyl)phenyl ester] | 9.7 |  | -63% |  |
| CC(C)c1cc(C(C)C)c(OS(=O)(=O)NC(=O)Cc2c(C(C)C)cccc2C(C)C)c(C(C)C)c1 [Example 3, sulfamic acid[[2,6-bis(1-methylethyl)phenyl]acetyl]-2,4,6-tris(1-methylethyl)phenylester] | 11 |  | -79% |  |
| CC(C)c1cccc(C(C)C)c1OS(=O)(=O)NC(=O)CC12CC3CC(CC(C3)C1)C2 [Example 4, sulfamic acid[adamantaneacetyl]-2,6-bis[1-methylethyl]phenyl ester] | 13 |  | -47% |  |
| CC(C)c1cc(C(C)C)c(CC(=O)NS(=O)(=O)Oc2c(C(C)C)cccc2C(C)C)c(C(C)C)c1 [Example 6, sulfamic acid[[2,4,6-tris(1-methylethyl)phenyl]acetyl]-2,6-bis(1-methylethyl)phenylester sodium salt] |  |  |  | -75 |
| CC(C)c1cccc(C(C)C)c1OS(=O)(=O)NC(=O)Cc1ccccc1 [Example 7, sulfamic acid(phenylacetyl)-2,6-bis(1-methylethyl)phenyl ester] | 47 |  | -17% |  |
| CCCCCCCCCC(=O)NS(=O)(=O)Oc1c(C(C)C)cccc1C(C)C [Example 10, sulfamic acid (decanoyl)-2,6-bis(1-methylethyl)phenyl ester] |  |  | -26% |  |
| CC(C)c1cccc(C(C)C)c1OS(=O)(=O)NC(=O)C12CC3CC(CC(C3)C1)C2 [Example 12] |  |  | -5% |  |
| CC(C)c1cccc(C(C)C)c1OS(=O)(=O)NC(=O)Cc1c(Cl)cccc1Cl [Example 14, sulfamic acid[2,6-dichlorophenyl(acetyl)]-2,6-bis(1-methylethyl)phenyl ester] | 33 |  | -12% |  |
| Cc1cc(C)c(CC(=O)NS(=O)(=O)Oc2c(C(C)C)cccc2C(C)C)c(C)c1 [Example 18, sulfamic acid[2,4,6-trimethylphenyl(acetyl)]-2,6-bis(1-methylethyl)phenyl ester] | 22 |  | -47% |  |
| CC(C)c1cccc(C(C)C)c1OS(=O)(=O)NC(=O)Cc1cccs1 [Example 19, sulfamic acid[2-thiophenyl(acetyl)]-2,6-bis(1-methylethyl)phenyl ester] | > 50 |  | -20% |  |
| CC(C)c1cccc(C(C)C)c1OS(=O)(=O)NC(=O)Cc1ccsc1 [Example 20, sulfamic acid[3-thiophenyl(acetyl)]-2,6-bis(1-methylethyl)phenyl ester] | > 50 |  | -19% |  |
| COc1ccccc1CC(=O)NS(=O)(=O)Oc1c(C(C)C)cccc1C(C)C [Example 21, sulfamic acid[2-methoxyphenyl(acetyl)]-2,6-bis(1-methylethyl)phenyl ester] | 55 |  | -16% |  |
| CC(C)c1cccc(C(C)C)c1OS(=O)(=O)NC(=O)C(=O)c1ccccc1 [Example 22, sulfamic acid(oxophenylacetyl)-2,6-bis(1-methylethyl)phenyl ester] | 50 |  | -23% |  |
| CC(C)c1cccc(C(C)C)c1OS(=O)(=O)NC(=O)Cc1ccccc1C(F)(F)F [Example 23, sulfamic acid[2-trifluoromethylphenyl(acetyl)]-2,6-bis(1-methylethyl)phenyl ester] | 12 |  | -19% |  |
| CC(C)c1cccc(C(C)C)c1OS(=O)(=O)NC(=O)C(C)c1ccccc1 (centres unmarked) [Example 24, sulfamic acid(1-oxo-2-phenylpropyl)-2,6-bis(1-methylethyl)phenyl ester] | 26 |  | -24% |  |
| CC(C)c1cccc(C(C)C)c1OS(=O)(=O)NC(=O)CC1CCCCC1 [Example 26, sulfamic acid(cyclohexylacetyl)-2,6-bis(1-methylethyl)phenyl ester] | 28 |  | -26% |  |
| CC(C)c1cccc(C(C)C)c1OS(=O)(=O)NC(=O)C(c1ccccc1)(c1ccccc1)c1ccccc1 [Example 28, sulfamic acid(triphenylacetyl)-2,6-bis(1-methylethyl)phenyl ester] | 6 |  | -30% |  |

More lines, main results first:

| IC50 [2] [µM] | IC50 ([2]; sodium salt) [µM] | SMILES | % Change (mg/dl) in cholesterol [1] | % Change (mg/dl) in cholesterol ([1]; sodium salt) [%] |
| --- | --- | --- | --- | --- |
|  | 12 | CC(C)c1cccc(C(C)C)c1CC(=O)NS(=O)(=O)Oc1c(C(C)C)cccc1C(C)C [Example 2, sulfamic acid[[2,6-bis(1-methylethyl)phenyl]acetyl]-2,6-bis(1-methylethyl)phenyl ester sodium salt] |  | -62 |
| 12 |  | CC(C)c1cc(C(C)C)c(CC(=O)NS(=O)(=O)Oc2c(C(C)C)cccc2C(C)C)c(C(C)C)c1 [Example 5, Sulfamic acid[[2,4,6-tris(1-methylethyl)phenyl]acetyl]-2,6-bis(1-methylethyl)phenylester] | -73% |  |
| 21 |  | CC(C)c1cc(C(C)C)c(CC(=O)NS(=O)(=O)Oc2c(C(C)C)cc(C(C)C)cc2C(C)C)c(C(C)C)c1 [Example 8, sulfamic acid[[2,4,6-tris(1-methylethyl)phenyl]acetyl]-2,4,6-tris(1-methylethyl)phenyl ester] | -66% |  |
| > 10 |  | CCCCCCCCCCCC(=O)NS(=O)(=O)Oc1c(C(C)C)cccc1C(C)C [Example 11, sulfamic acid(dodecanoyl)-2,6-bis(1-methylethyl)phenyl ester] | -8% |  |
| 25 |  | CC(C)c1cccc(C(C)C)c1OS(=O)(=O)NC(=O)CC(c1ccccc1)c1ccccc1 [Example 13, sulfamic acid(1-oxo-3,3-diphenylpropyl)-2,6-bis(1-methylethyl)phenyl ester] | -31% |  |
| 36 |  | COc1ccc(OC)c(CC(=O)NS(=O)(=O)Oc2c(C(C)C)cccc2C(C)C)c1 [Example 16, sulfamic acid[2,5-dimethoxyphenyl(acetyl)]-2,6-bis(1-methylethyl)phenyl ester] | +10% |  |
| > 50 |  | COc1cc(OC)c(CC(=O)NS(=O)(=O)Oc2c(C(C)C)cccc2C(C)C)c(OC)c1 [Example 17, sulfamic acid[2,4,6-trimethoxyphenyl(acetyl)]-2,6-bis(1-methylethyl)phenyl ester] | -40% |  |
| 7.2 |  | CC(C)c1cccc(C(C)C)c1OS(=O)(=O)NC(=O)C(c1ccccc1)C1CCCC1 (centres unmarked) [Example 25, sulfamic acid(cyclopentylphenylacetyl)-2,6-bis(1-methylethyl)phenyl ester] | -71% |  |
| 12 |  | CC(C)c1cccc(C(C)C)c1OS(=O)(=O)NC(=O)C(c1ccccc1)c1ccccc1 [Example 27, sulfamic acid(diphenylacetyl)-2,6-bis(1-methylethyl)phenyl ester] | -72% |  |

From US5491172A, “N-acyl sulfamic acid esters (or thioesters), N-acyl sulfonamides, and N-sulfonyl carbamic acid esters (or thioesters) as hypercholesterolemic agents” (Warner-Lambert Company, priority 1994, dated 1996)
